Reference: ChEMBL document CHEMBL1152120, “RP 73163: A bioavailable alkylsulphinyl-diphenylimidazole ACAT inhibitor” (Bioorg Med Chem Lett, 1996)

Legend:
[1] = biological target: T1, Acyl-CoA:cholesterol acyltransferase (Oryctolagus cuniculus, UniProt Q95214); test: Compound was evaluated for inhibitory activity against Acyl coenzyme A:cholesterol acyltransferase in microsomes from rabbit adrenal.
T1 sequence (Q95214 whole entry): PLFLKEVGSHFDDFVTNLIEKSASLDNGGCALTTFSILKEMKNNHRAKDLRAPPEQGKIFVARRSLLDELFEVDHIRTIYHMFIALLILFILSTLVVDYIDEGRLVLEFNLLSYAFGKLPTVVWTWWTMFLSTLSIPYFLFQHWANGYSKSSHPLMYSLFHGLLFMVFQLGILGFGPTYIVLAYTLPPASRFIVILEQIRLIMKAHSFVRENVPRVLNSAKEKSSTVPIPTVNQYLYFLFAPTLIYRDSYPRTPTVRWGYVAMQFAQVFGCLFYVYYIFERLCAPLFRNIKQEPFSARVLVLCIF

[2] = biological target: T1, Acyl-CoA:cholesterol acyltransferase; test: Compound was evaluated for inhibitory activity against Acyl coenzyme A:cholesterol acyltransferase in microsomes from rabbit artery.
[3] = biological target: T1, Acyl-CoA:cholesterol acyltransferase; test: Compound was evaluated for inhibitory activity against Acyl coenzyme A:cholesterol acyltransferase in microsomes from rabbit intestine.
[4] = biological target: T1, Acyl-CoA:cholesterol acyltransferase; test: Compound was evaluated for inhibitory activity against Acyl coenzyme A:cholesterol acyltransferase in microsomes from rabbit liver.

Cc1cc(C)n(CCCCC[S+]([O-])c2nc(-c3ccccc3)c(-c3ccccc3)[nH]2)n1 (centres undefined)
IC50 [1]: 208 nM
IC50 [2]: 245 nM
IC50 [3]: 370 nM
IC50 [4]: 122 nM
